For 18 compounds, EC50 and IC50 results are on record in US20240180886A1, “INHIBITORS OF PROTEIN TYROSINE PHOSPHATASE, COMPOSITIONS, AND METHODS OF USE” (BRISTOL-MYERS SQUIBB COMPANY, priority 2022, published 2024).

The test system of one assay is B16-F10 cells. Nature of the assay: Cell proliferation assay (CellTiter-Glo) in B16-F10 cells with IFN-gamma. The note with it: 120 h, mouse IFN-gamma 10 ng/mL, read-out: PTPN2 Prolif 5d B16F10 EC50. In kind it is cell-based.
The subject of assay [1] is phosphorylated STAT1 in B16-F10 cells. Nature of the assay: Phospho-STAT1 (Tyr701) HTRF assay in B16-F10 cells with IFN-gamma. In kind it is cell-based. The settings on record: mouse IFN-gamma 100 ng/mL, 1 hour, read-out: pSTAT1 HTRF B16F10 EC50. As to the method: B16-F10 cells (ATCC, Manassas, VA, #CRL-6475) were cultured in DMEM growth medium (ThermoFisher Scientific, Waltham, MA, #11995-040) supplemented with 10% heat-inactivated FBS (ThermoFisher Scientific, #16140-071) and 1% pen/strep (ThermoFisher Scientific, #15140-122). The cells were seeded into a white opaque 384-well tissue culture treated microplate (PerkinElmer, Waltham, MA, #6007688) at a density of 10,000 cells/well in 20 uL total volume and incubated overnight at 37 C and 5% CO2. 30 nL of compounds dissolved in DMSO were then transferred from a source plate into target wells with the Echo650 acoustic liquid handler (Beckman Coulter, Indianapolis, IN). Negative control wells received 30 nL of DMSO only (0.15% final concentration). Plates were returned to the incubator for 1 hour and then cells were treated with either 5 uL of growth medium or 5 uL of growth medium containing 500 ng/mL of recombinant mouse IFN-gamma protein (R&D Systems, Minneapolis, MN, #485-MI/CF, 100 ng/mL final concentration) using the Assist automated pipetting platform (INTEGRA Biosciences, Hudson, NH). Plates were incubated at 37 C for 1 hour and assayed for phosphorylated STAT1 protein levels with the phospho-STAT1 (Tyr701) HTRF kit (Cisbio, Bedford, MA, #63ADK026PEH) according to the manufacturer's instructions.
(In general: Time-resolved FRET reads energy transfer from a long-lived donor to a nearby acceptor.)

For assay [2], the target named is T1, PTPN2 (Homo sapiens (Human), UniProt P17706). As to the kind of experiment: Phosphatase activity assay using DiFMUP as substrate. The settings on record: PTPN2 0.15 nM, 10 mM DTT. In kind it is biochemical. The protocol:
The PTPN2 biochemical assay was performed as follows, a 5× stock solution of human PTPN2 (SRP5075, MilliporeSigma, Burlington, MA) and a 1.25× stock solution of DiFMUP (D6567, ThermoFisher Scientific, Waltham, MA), were prepared in 1× reaction buffer consisting of 50 mM HEPES, pH 7.4, 1 mM EDTA, 150 mM NaCl, 0.2 mg/mL BSA, 100 U/mL catalase and 10 mM DTT. […] of the DiFMUP substrate solution, for a final concentration of […] DiFMUP substrate, was added to a Corning 3574 384-well, white, non-binding surface microtiter plate containing […] of serially diluted test compounds prepared in DMSO. The reactions were started with the addition of […] of the enzyme solution, for a final PTPN2 concentration of 0.15 nM, and monitored every 105 seconds for 60 minutes at λEX 360/λEM 460 in a BioTek Synergy HTX plate reader (Agilent Technologies, Santa Clara, CA) at room temperature. The initial linear portions of the progress curves were fit according to a linear equation to yield the slopes and converted to % inhibition based on a value of 100% activity for the no inhibitor treated control. IC50 values of each compound were obtained by fitting the % inhibition-compound concentration curves using Dotmatics software (Dotmatics, Bishops Stortford, Hertfordshire, England),
Target sequence in this assay (P17706 other isoform, or with tags, fused parts or gaps isoform P17706-2): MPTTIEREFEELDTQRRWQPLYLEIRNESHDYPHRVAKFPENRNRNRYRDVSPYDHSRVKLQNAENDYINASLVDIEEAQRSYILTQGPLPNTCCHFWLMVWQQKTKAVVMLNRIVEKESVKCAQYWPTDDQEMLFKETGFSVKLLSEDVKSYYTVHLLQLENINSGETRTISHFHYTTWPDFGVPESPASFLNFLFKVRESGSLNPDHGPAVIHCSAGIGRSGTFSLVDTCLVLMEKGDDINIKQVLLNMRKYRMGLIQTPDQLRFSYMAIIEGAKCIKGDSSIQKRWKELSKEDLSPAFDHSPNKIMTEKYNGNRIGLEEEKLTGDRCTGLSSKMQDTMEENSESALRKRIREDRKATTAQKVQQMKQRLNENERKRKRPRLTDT

Assay [3] has as its target T1, PTPN2. As to the kind of experiment: PhosphoSens assay (PTPN2 BCHEM). Format: biochemical. The note with it: substrate AQT0264 20 μM, PTPN2 150 pM. The protocol:
A PhosphoSens® kinase assay was performed as described by the vendor (AssayQuant Technologies, Marlborough, MA). Briefly, 1000× solutions of compounds were prepared in DMSO via serial dilution of the 10 mM DMSO stocks using 3-fold intervals in a 384-well reagent plate. 50 nL of the compound dilution series was then added to the corresponding wells of a 384-well assay plate. […] Finally, […] of 5× PTPN2 enzyme stock was added to each well of the assay plate for a final enzyme concentration of 150 pM. Reaction progress curves were collected by sampling fluorescence intensity at the excitation wavelength 360 nm (λex360) and emission wavelength 480 nm (λem480) every 71 seconds for one hour using a Synergy H4 plate reader (BioTek Instruments/Agilent Technologies, Winooski, VT) at room temperature.
Target sequence in this assay (P17706 whole entry): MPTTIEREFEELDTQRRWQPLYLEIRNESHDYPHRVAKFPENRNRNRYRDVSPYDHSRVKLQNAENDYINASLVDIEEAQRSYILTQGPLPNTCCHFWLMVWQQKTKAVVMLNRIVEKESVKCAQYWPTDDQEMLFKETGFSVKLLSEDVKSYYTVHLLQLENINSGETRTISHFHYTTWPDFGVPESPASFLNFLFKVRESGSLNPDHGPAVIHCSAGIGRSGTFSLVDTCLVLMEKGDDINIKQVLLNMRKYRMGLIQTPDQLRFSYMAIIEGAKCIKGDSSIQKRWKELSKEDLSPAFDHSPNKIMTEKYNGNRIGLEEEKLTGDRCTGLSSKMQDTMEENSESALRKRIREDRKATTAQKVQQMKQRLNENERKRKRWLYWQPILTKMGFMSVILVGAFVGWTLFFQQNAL

SMILES strings stand for the structures. Bounds are passed on as bounds.

With `O=C1CN(c2c(O)cc(CNc3cc(OCc4ccccc4)ccn3)cc2F)S(=O)(=O)N1` [EXAMPLE 46, 5-[4-[[(4-benzyloxy-2-pyridyl)amino]methyl]-2-fluoro-6-hydroxy-phenyl]-1,1-dioxo-1,2,5-thiadiazolidin-3-one], the results for the EC50 (with B16-F10 cells; in assay [1]) were 3.51 µM and 4.1 µM, respectively. The IC50 (in general, the concentration needed to halve the response being measured) on PTPN2 [2] is 0.01 µM; at PTPN2 [3], 0.006 µM.
For `COc1cccc(NCc2cc(O)c(N3CC(=O)NS3(=O)=O)c(F)c2)n1` [EXAMPLE 35, 5-[2-fluoro-6-hydroxy-4-[[(6-methoxy-2-pyridyl)amino]methyl]phenyl]-1,1-dioxo-1,2,5-thiadiazolidin-3-one], the 50% effective concentration (EC50) (commonly the concentration at which the effect is half-maximal) with B16-F10 cells is 8.66 µM; in assay [1] it was 11.6 µM. The IC50 on PTPN2 [2] stood at 0.02 µM; at PTPN2 [3], 0.08 µM.
On the same counts, the results for `Cc1cc(NCc2cc(O)c(N3CC(=O)NS3(=O)=O)c(F)c2)ncc1C#N` [EXAMPLE 32, 6-[[3-fluoro-5-hydroxy-4-(1,1,4-trioxo-1,2,5-thiadiazolidin-2-yl)phenyl]methylamino]-4-methyl-pyridine-3-carbonitrile] are 4.55 µM, 2.34 µM, 0.05 µM and 0.03 µM.
Taken in the same sequence, the figures for `O=C1CN(c2c(O)cc(CNc3ccc(-c4ccccc4)cn3)cc2F)S(=O)(=O)N1` [EXAMPLE 8, 5-[2-fluoro-6-hydroxy-4-[[(5-phenyl-2-pyridyl)amino]methyl]phenyl]-1,1-dioxo-1,2,5-thiadiazolidin-3-one] were 6.25 µM, 3.93 µM, 0.95 µM and 0.05 µM.
On the same counts, the results for `CCc1ccnc(NCc2cc(O)c(N3CC(=O)NS3(=O)=O)c(F)c2)c1` [EXAMPLE 13, 5-[4-[[(4-ethyl-2-pyridyl)amino]methyl]-2-fluoro-6-hydroxy-phenyl]-1,1-dioxo-1,2,5-thiadiazolidin-3-one] are 0.23 µM, 0.26 µM, 0.006 µM and 0.002 µM.
As for `O=C1CN(c2c(O)cc(CNc3cc(C(F)(F)F)ccn3)cc2F)S(=O)(=O)N1` [EXAMPLE 2, 5-[2-fluoro-6-hydroxy-4-[[[4-(trifluoromethyl)-2-pyridyl]amino]methyl]phenyl]-1,1-dioxo-1,2,5-thiadiazolidin-3-one], the EC50 in the assay with B16-F10 cells was determined as 2.67 µM; in assay [1], 2.43 µM. Moreover, the results for the IC50 on PTPN2 [2] and on PTPN2 [3] were 0.35 µM and 0.08 µM, respectively.
Taken in the same sequence, the figures for `COc1ccc(C)nc1NCc1cc(O)c(N2CC(=O)NS2(=O)=O)c(F)c1` [EXAMPLE 22, 5-[2-fluoro-6-hydroxy-4-[[(3-methoxy-6-methyl-2-pyridyl)amino]methyl]phenyl]-1,1-dioxo-1,2,5-thiadiazolidin-3-one] were 2.47 µM, 2.97 µM, 0.17 µM and 0.08 µM.
Taken in the same sequence, the figures for `Cc1ccnc(NCc2cc(O)c(N3CC(=O)NS3(=O)=O)c(F)c2)c1C` [EXAMPLE 25, 5-[4-[[(3,4-dimethyl-2-pyridyl)amino]methyl]-2-fluoro-6-hydroxy-phenyl]-1,1-dioxo-1,2,5-thiadiazolidin-3-one] were 7.67 µM, 10.2 µM, 0.13 µM and 0.09 µM.
On the same counts, the results for `Cc1cnc(NCc2cc(O)c(N3CC(=O)NS3(=O)=O)c(F)c2)c(C)c1` [EXAMPLE 24, 5-[4-[[(3,5-dimethyl-2-pyridyl)amino]methyl]-2-fluoro-6-hydroxy-phenyl]-1,1-dioxo-1,2,5-thiadiazolidin-3-one] are 4.56 µM, 5.4 µM, 0.08 µM and 0.1 µM.
Consider `Cc1ccnc(NCc2cc(O)c(N3CC(=O)NS3(=O)=O)c(F)c2)c1` [EXAMPLE 7, 5-[2-fluoro-6-hydroxy-4-[[(4-methyl-2-pyridyl)amino]methyl]phenyl]-1,1-dioxo-1,2,5-thiadiazolidin-3-one], for which the EC50 in the assay on B16-F10 cells is 0.17 µM; in assay [1], 0.18 µM. Besides, the values for the IC50 at PTPN2 [2] and on PTPN2 [3] were 0.003 µM and 0.005 µM, respectively.
Taken in the same sequence, the figures for `O=C1CN(c2c(O)cc(CNc3ncccc3C(F)(F)F)cc2F)S(=O)(=O)N1` [EXAMPLE 3, 5-[2-fluoro-6-hydroxy-4-[[[3-(trifluoromethyl)-2-pyridyl]amino]methyl]phenyl]-1,1-dioxo-1,2,5-thiadiazolidin-3-one] were over 15 µM, over 15 µM, 1 µM and 0.57 µM.
Taken in the same sequence, the figures for `N#Cc1ccnc(NCc2cc(O)c(N3CC(=O)NS3(=O)=O)c(F)c2)c1` [EXAMPLE 11, 2-[[3-fluoro-5-hydroxy-4-(1,1,4-trioxo-1,2,5-thiadiazolidin-2-yl)phenyl]methylamino]pyridine-4-carbonitrile] were 3.13 µM, 1.99 µM, 0.1 µM and 0.04 µM.
`Cc1ccc(C)c(NCc2cc(O)c(N3CC(=O)NS3(=O)=O)c(F)c2)n1` [EXAMPLE 20, 5-[4-[[(3,6-dimethyl-2-pyridyl)amino]methyl]-2-fluoro-6-hydroxy-phenyl]-1,1-dioxo-1,2,5-thiadiazolidin-3-one]: the EC50 amounted to 3.95 µM with B16-F10 cells and 3.6 µM in assay [1]. The IC50 was found to be 0.19 µM at PTPN2 [2] and 0.08 µM on PTPN2 [3].
Taken in the same sequence, the figures for `O=C1CN(c2c(O)cc(CNc3ccccn3)cc2F)S(=O)(=O)N1` [EXAMPLE 37, 5-[2-fluoro-6-hydroxy-4-[(2-pyridylamino)methyl]phenyl]-1,1-dioxo-1,2,5-thiadiazolidin-3-one] were 1.26 µM, 0.45 µM, 0.07 µM and 0.03 µM.
Taken in the same sequence, the figures for `COc1ccc(NCc2cc(O)c(N3CC(=O)NS3(=O)=O)c(F)c2)nc1OC` [EXAMPLE 36, 5-[4-[[(5,6-dimethoxy-2-pyridyl)amino]methyl]-2-fluoro-6-hydroxy-phenyl]-1,1-dioxo-1,2,5-thiadiazolidin-3-one] were 2.18 µM, 0.64 µM, 0.01 µM and 0.02 µM.
For `COc1ccnc(NCc2cc(O)c(N3CC(=O)NS3(=O)=O)c(F)c2)c1` [EXAMPLE 12, 5-[2-fluoro-6-hydroxy-4-[[(4-methoxy-2-pyridyl)amino]methyl]phenyl]-1,1-dioxo-1,2,5-thiadiazolidin-3-one], the 50% effective concentration (EC50) with B16-F10 cells is 0.14 µM; in assay [1] it was 0.09 µM. Moreover, the IC50 on PTPN2 [2] and at PTPN2 [3] was 0.01 µM in each case.
With `O=C1CN(c2c(O)cc(CN(c3ccc(C(F)(F)F)cn3)C3CC3)cc2F)S(=O)(=O)N1` [EXAMPLE 50, 5-(4-((cyclopropyl(5-(trifluoromethyl)pyridin-2-yl)amino)methyl)-2-fluoro-6-hydroxyphenyl)-1,2,5-thiadiazolidin-3-one 1,1-dioxide], the EC50 (in the assay with B16-F10 cells; in assay [1]) was over 15 µM each time. The IC50 is 3.24 µM on PTPN2 [2] and 0.816 µM on PTPN2 [3].
For `Cc1cccc(NCc2cc(O)c(N3CC(=O)NS3(=O)=O)c(F)c2)n1` [EXAMPLE 17, 5-[2-fluoro-6-hydroxy-4-[[(6-methyl-2-pyridyl)amino]methyl]phenyl]-1,1-dioxo-1,2,5-thiadiazolidin-3-one], the results for the EC50 (in the assay with B16-F10 cells; in assay [1]) were 0.16 µM and 0.08 µM, respectively. Besides, the IC50 at PTPN2 [2] was 0.004 µM; at PTPN2 [3], 0.001 µM.
